In patent US11530244B2, “Cyclic polypeptides for PCSK9 inhibition” (priority 2018, dated 2022):
Where two headings read alike, the source gives them in different places. Starred links: 1 amine or outer side, 2 acyl side, 3 side chain; linkers in the order of their positions; H or OH if unused. Positions of bridges follow the written chain, without caps; N, C: chain ends. Non-standard residues stand in square brackets, D forms with d. Residues, ends and D or L forms follow the SMILES beside them. Triazole bridges read from a SMILES are 1,4-linked. NHCH2(1,3-C6H4)CH2CO = O=C(Cc1cccc(CN[*:1])c1)[*:2]; X24 = O=C(CCCCSc1c(F)c(F)c(SCCN[*:1])c(F)c1F)[*:2]; Phe(4-COOH) = N[C@@H](Cc1ccc(C(=O)O)cc1)C(=O)O; Trp(5-F) = N[C@@H](Cc1c[nH]c2ccc(F)cc12)C(=O)O; Tyr(3-Cl) = N[C@@H](Cc1ccc(O)c(Cl)c1)C(=O)O; X11 = COc1ccc(C[C@H](N[*:1])C(=O)[*:2])cc1C; Leu(3R-OH) = CC(C)[C@@H](O)[C@H](N)C(=O)O; NMeW = CN[C@@H](Cc1c[nH]c2ccccc12)C(=O)O; Pro(cis-4-F) = O=C(O)[C@@H]1C[C@H](F)CN1; X13 = O=C(CCCCc1cccc(CCCCN[*:1])c1)[*:2]; Lys(N3) = [N-]=[N+]=NCCCC[C@H](N)C(=O)O; X4 = O=C(CCSCc1cccc(CSCCN[*:1])c1)[*:2]; X27 = O=C([C@@H](N[*:1])C1(O)CC1)[*:2]; mXylylene = c1cc(C[*:1])cc(C[*:2])c1; NMeY = CN[C@@H](Cc1ccc(O)cc1)C(=O)O; Val(3-OH) = CC(C)(O)[C@H](N)C(=O)O; X35 = COc1cc(C[*:1])cc(C[*:2])c1; X22 = Oc1cc(C[*:1])cc(C[*:2])c1; NMeD = CN[C@@H](CC(=O)O)C(=O)O; aThr = C[C@H](O)[C@H](N)C(=O)O; αMeP = C[C@@]1(C(=O)O)CCCN1; Hpra = C#CCC[C@H](N)C(=O)O; Orn = NCCC[C@H](N)C(=O)O; Dab = NCC[C@H](N)C(=O)O; X2 = O=C(C[*:2])[*:1]; Mpa = O=C(O)CCS

Assays:
PCSK9 = PCSK9 (Homo sapiens (Human), UniProt Q8NBP7); assay: PCSK9 Alexa FRET Standard assay (displacement of AlexaFluor647 tagged cyclic peptide Reagent A); type: binding
In short: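 TR-FRET displacement: 0.5 nM biotinylated PCSK9 with 1.25 nM Strep-Eu and 20 nM AlexaFluor-tagged cyclic peptide (final) in 50 mM HEPES pH 7.4, 0.15 M NaCl, 5 mM CaCl2, 0.01% BSA, 0.01% P20, ≥2 h at room temperature. IC50 from sigmoidal fit, converted to Ki via peptide KD; falling Eu counts flagged false positives.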

[1] = biological target: human PCSK9 / human LDLR EGFa domain interaction (Homo sapiens (Human), UniProt Q8NBP7); assay: TR-FRET assay of inhibition of the PCSK9-LDLR protein-protein interaction; type: binding
In short: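 Compounds in dose-response are mixed with 20 nM human PCSK9 (avitag-biotinylated) and 20 nM his-tagged LDLR EGFa domain, plus 5 nM each streptavidin-Ulight and Eu-anti-6×His. After 2 h at room temperature in HEPES/NaCl/CaCl2 buffer with BSA and P20, TR-FRET is read and IC50 fitted (4-parameter).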

[2] = PCSK9 Alexa FRET Standard assay, 0.5 nM PCSK9, 20 nM AF cyclic peptide Reagent A, read-out: IC50
[3] = TR-FRET, 20 nM human PCSK9, 20 nM human LDLR EGFa domain, 2 hours room temperature, read-out: IC50

human PCSK9 / human LDLR EGFa domain interaction, sequence (Q8NBP7 153-692): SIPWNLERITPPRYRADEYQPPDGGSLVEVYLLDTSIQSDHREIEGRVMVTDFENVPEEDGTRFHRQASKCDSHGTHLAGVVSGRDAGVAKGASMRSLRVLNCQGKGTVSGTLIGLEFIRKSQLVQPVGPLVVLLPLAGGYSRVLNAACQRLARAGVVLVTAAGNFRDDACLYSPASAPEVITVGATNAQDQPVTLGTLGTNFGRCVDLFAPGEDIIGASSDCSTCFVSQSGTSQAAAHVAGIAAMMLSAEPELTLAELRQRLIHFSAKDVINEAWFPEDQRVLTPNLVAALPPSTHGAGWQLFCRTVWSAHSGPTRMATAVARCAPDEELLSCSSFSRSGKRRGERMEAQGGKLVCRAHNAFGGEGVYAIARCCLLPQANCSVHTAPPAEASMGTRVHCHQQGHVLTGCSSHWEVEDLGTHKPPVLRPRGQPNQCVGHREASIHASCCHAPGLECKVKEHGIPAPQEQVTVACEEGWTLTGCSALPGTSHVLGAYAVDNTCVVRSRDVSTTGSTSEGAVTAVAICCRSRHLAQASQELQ
human PCSK9 / human LDLR EGFa domain interaction, sequence (Q8NBP7 31-152 partner): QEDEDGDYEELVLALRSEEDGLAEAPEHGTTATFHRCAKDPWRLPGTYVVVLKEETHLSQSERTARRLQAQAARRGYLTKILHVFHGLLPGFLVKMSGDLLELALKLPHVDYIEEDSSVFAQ
PCSK9, sequence (Q8NBP7 153-692): as the sequence (Q8NBP7 153-692) above

SMILES	IC50 (PCSK9; [2]) [nM]	IC50 [1, 3] [nM]	IC50 (PCSK9; IC50) [nM]	IC50 [1] [nM]
CC(C)[C@@H](O)[C@@H]1NC(=O)[C@@H]2CCCN2C(=O)[C@H](Cc2c[nH]c3ccc(F)cc23)NC(=O)[C@H](Cc2c[nH]c3ccc(F)cc23)NC(=O)CNC(=O)[C@H](CCCCN)NC(=O)CCSCc2cccc(c2)CSC[C@@H](C(N)=O)NC(=O)[C@]2(C)CCCN2C(=O)[C@H](Cc2ccc(O)cc2)NC1=O [Compound 049] ([Mpa]KG[Trp(5-F)][Trp(5-F)]P[Leu(3R-OH)]Y[αMeP]C-NH2; linker 1-10 via mXylylene)	100 to 1000	100 to 1000		
C[C@@]12CCCN1C(=O)[C@H](Cc1ccc(O)cc1)NC(=O)[C@H](Cc1cnc[nH]1)NC(=O)[C@H](CC(=O)O)NC(=O)[C@H](Cc1c[nH]c3ccc(F)cc13)NC(=O)[C@H](Cc1c[nH]c3ccc(F)cc13)NC(=O)CNC(=O)[C@H](CCCN)NC(=O)CCSCc1cccc(c1)CSC[C@@H](C(N)=O)NC2=O [Compound 248] ([Mpa][Orn]G[Trp(5-F)][Trp(5-F)]DHY[αMeP]C-NH2; linker 1-10 via mXylylene)	100 to 1000	0.1 to 100		
COc1ccc(C[C@@H]2NC(=O)[C@@H]3CCC/C=C\CO[C@H]4C[C@@H](C(=O)N3)N(C4)C(=O)[C@H](Cc3c[nH]c4ccc(F)cc34)NC(=O)[C@H](Cc3c[nH]c4ccc(F)cc34)NC(=O)[C@@H](C)NC(=O)[C@H](CCCCN)NC(=O)CCSCc3cccc(c3)CSC[C@@H](C(N)=O)NC(=O)[C@]3(C)CCCN3C2=O)cc1 [Compound 500]	1000 to 12100	1000 to 12100		
C[C@H]1NC(=O)[C@H](CCCCN)NC(=O)CCSCc2cccc(c2)CSCCNC(=O)[C@]2(C)CCCN2C(=O)[C@H](Cc2ccc(O)c(Cl)c2)NC(=O)[C@H](Cc2cnc[nH]2)NC(=O)[C@H](CC(=O)O)NC(=O)[C@H](Cc2c[nH]c3ccc(F)cc23)NC(=O)[C@H](Cc2c[nH]c3ccc(F)cc23)NC1=O [Compound 246] (cyclo(DH[Tyr(3-Cl)][αMeP][X4]K[dA][Trp(5-F)][Trp(5-F)]))	1000 to 12100	100 to 1000		
CC(C)(O)[C@@H]1NC(=O)CCSCc2cccc(c2)CSC[C@@H](C(N)=O)NC(=O)[C@]2(C)CCCN2C(=O)[C@H](Cc2ccc(O)cc2)NC(=O)[C@H](Cc2cnc[nH]2)NC(=O)[C@H](CC(=O)O)NC(=O)[C@H](Cc2c[nH]c3ccc(F)cc23)NC(=O)[C@H](Cc2c[nH]c3ccc(F)cc23)NC(=O)CNC1=O [Compound 374] ([Mpa][Val(3-OH)]G[Trp(5-F)][Trp(5-F)]DHY[αMeP]C-NH2; linker 1-10 via mXylylene)	100 to 1000	0.1 to 100		
COc1ccc(C[C@@H]2NC(=O)[C@H]([C@H](C)OC)NC(=O)[C@@H]3C[C@H](F)CN3C(=O)[C@H](Cc3c[nH]c4ccc(F)cc34)NC(=O)[C@H](Cc3c[nH]c4ccc(F)cc34)NC(=O)[C@@H](C)NC(=O)[C@H](CCCCN)NC(=O)CCSCc3cccc(c3)CSC[C@@H](C(N)=O)NC(=O)[C@]3(C)CCCN3C2=O)cc1 [Compound 072] ([Mpa]K[dA][Trp(5-F)][Trp(5-F)][Pro(cis-4-F)][aThr](Me)Y(Me)[αMeP]C-NH2; linker 1-10 via mXylylene)	1000 to 12100	100 to 1000		
COc1ccc(C[C@@H]2NC(=O)[C@H](Cc3cnc[nH]3)NC(=O)[C@H](CC(=O)O)NC(=O)[C@H](Cc3c[nH]c4ccc(F)cc34)NC(=O)[C@H](Cc3c[nH]c4ccc(F)cc34)NC(=O)[C@@H](C)NC(=O)[C@H](CCCCN)NC(=O)[C@@H](NC(C)=O)CCNC(=O)COc3ccc(cc3)C[C@@H](C(N)=O)NC(=O)[C@]3(C)CCCN3C2=O)cc1 [Compound 409] (Ac-[Dab]K[dA][Trp(5-F)][Trp(5-F)]DHY(Me)[αMeP]Y-NH2; linker 1-10 via X2)	100 to 1000	0.1 to 100		
COc1ccc(C[C@@H]2NC(=O)[C@H](Cc3c[nH]cn3)NC(=O)[C@H](CC(=O)O)NC(=O)[C@H](Cc3c[nH]c4ccc(F)cc34)NC(=O)[C@H](Cc3c[nH]c4ccc(F)cc34)NC(=O)[C@@H](C)NC(=O)[C@H](CCCCN)NC(=O)CCSCc3cccc(c3)CSCCNC(=O)[C@]3(C)CCCN3C2=O)cc1C [Compound 387] (cyclo(DH[X11][αMeP][X4]K[dA][Trp(5-F)][Trp(5-F)]))	100 to 1000	0.1 to 100		
C[C@@]12CCCN1C(=O)[C@H](Cc1ccc(O)cc1)NC(=O)[C@H](Cc1cnc[nH]1)NC(=O)[C@H](CC(=O)O)NC(=O)[C@H](Cc1c[nH]c3ccc(F)cc13)NC(=O)[C@H](Cc1c[nH]c3ccc(F)cc13)NC(=O)CNC(=O)[C@H](C1(O)CC1)NC(=O)CCSCc1cccc(c1)CSC[C@@H](C(N)=O)NC2=O [Compound 372] ([Mpa][X27]G[Trp(5-F)][Trp(5-F)]DHY[αMeP]C-NH2; linker 1-10 via mXylylene)	100 to 1000	100 to 1000		
CN1C(=O)[C@H](Cc2c[nH]c3ccc(F)cc23)NC(=O)[C@H](Cc2c[nH]c3ccc(F)cc23)NC(=O)CNC(=O)[C@H](CCCCN)NC(=O)CCSCc2cccc(c2)CSC[C@@H](C(N)=O)NC(=O)[C@@H]2CCCN2C(=O)[C@H](Cc2ccc(O)cc2)NC(=O)[C@H](Cc2cnc[nH]2)NC(=O)[C@@H]1CC(=O)O [Compound 171] ([Mpa]KG[Trp(5-F)][Trp(5-F)][NMeD]HYPC-NH2; linker 1-10 via mXylylene)	100 to 1000	0.1 to 100		
COc1ccc(C[C@@H]2NC(=O)[C@H](Cc3cnc[nH]3)NC(=O)[C@H](CC(=O)O)NC(=O)[C@H](Cc3c[nH]c4ccc(F)cc34)NC(=O)[C@H](Cc3c[nH]c4ccc(F)cc34)NC(=O)[C@@H](C)NC(=O)Cc3cccc(c3)CNC(=O)c3ccc(cc3)C[C@@H](C(N)=O)NC(=O)[C@]3(C)CCCN3C2=O)cc1 [Compound 390] ([NHCH2(1,3-C6H4)CH2CO][dA][Trp(5-F)][Trp(5-F)]DHY(Me)[αMeP][Phe(4-COOH)]-NH2; lactam N-9)	100 to 1000	0.1 to 100		
C[C@H]1NC(=O)[C@H](CCCCN)NC(=O)CCSCc2cccc(c2)CSCCNC(=O)[C@]2(C)CCCN2C(=O)[C@H](Cc2ccc(O)cc2)N(C)C(=O)[C@H](Cc2c[nH]cn2)NC(=O)[C@H](CC(=O)O)NC(=O)[C@H](Cc2c[nH]c3ccc(F)cc23)NC(=O)[C@H](Cc2c[nH]c3ccccc23)N(C)C1=O [Compound 276] (cyclo(DH[NMeY][αMeP][X4]K[dA][NMeW][Trp(5-F)]))			100 to 1000	0.1 to 100
COc1ccc(C[C@@H]2NC(=O)[C@H]([C@@H](C)O)NC(=O)[C@@H]3CSCc4cccc(c4)CSC[C@H](NC(=O)[C@@H](C)NC(=O)[C@H](C)NC(=O)CCCCc4cccc(c4)CCCCNC(=O)[C@@H]4CCCN4C2=O)C(=O)N[C@@H](Cc2c[nH]c4ccc(F)cc24)C(=O)N3)cc1 [Compound 497] (cyclo(A[dA]C[Trp(5-F)]CTY(Me)P[X13]); linker 3-5 via mXylylene)	100 to 1000	100 to 1000		
COc1ccc(C[C@@H]2NC(=O)[C@H](Cc3cnc[nH]3)NC(=O)[C@H](CC(=O)O)NC(=O)[C@H](Cc3c[nH]c4ccc(F)cc34)NC(=O)[C@H](Cc3c[nH]c4ccc(F)cc34)NC(=O)[C@@H](C)NC(=O)CCCCSc3c(F)c(F)c(c(F)c3F)SCCNC(=O)[C@]3(C)CCCN3C2=O)cc1 [Compound 483] (cyclo(DHY(Me)[αMeP][X24][dA][Trp(5-F)][Trp(5-F)]))	0.11 to 100	0.1 to 100		
CC(=O)N[C@H]1CCc2cn(nn2)CCCC[C@@H](C(N)=O)NC(=O)[C@]2(C)CCCN2C(=O)[C@H](Cc2ccc(O)cc2)NC(=O)[C@H](Cc2cnc[nH]2)NC(=O)[C@H](CC(=O)O)NC(=O)[C@H](Cc2c[nH]c3ccc(F)cc23)NC(=O)[C@H](Cc2c[nH]c3ccc(F)cc23)NC(=O)CNC(=O)[C@H](C)NC1=O [Compound 339] (Ac-[Hpra]AG[Trp(5-F)][Trp(5-F)]DHY[αMeP][Lys(N3)]-NH2; triazole 1-10)	1000 to 12100	1000 to 12100		
COc1ccc(C[C@@H]2NC(=O)[C@H]([C@@H](C)O)NC(=O)[C@@H]3CCCN3C(=O)[C@H](Cc3c[nH]c4ccc(F)cc34)NC(=O)[C@H](Cc3c[nH]c4ccc(F)cc34)NC(=O)[C@@H](C)NC(=O)[C@H](CCCCN)NC(=O)CCSCc3cc(O)cc(c3)CSC[C@@H](C(N)=O)NC(=O)[C@]3(C)CCCN3C2=O)cc1 [Compound 060] ([Mpa]K[dA][Trp(5-F)][Trp(5-F)]PTY(Me)[αMeP]C-NH2; linker 1-10 via X22)	21000 to 50000	21000 to 50000		
COc1ccc(C[C@@H]2NC(=O)[C@H]([C@@H](C)O)NC(=O)[C@@H]3CCCN3C(=O)[C@H](Cc3c[nH]c4ccc(F)cc34)NC(=O)[C@H](Cc3c[nH]c4ccc(F)cc34)NC(=O)[C@@H](C)NC(=O)[C@H](C)NC(=O)CCCCc3cccc(c3)CCCCNC(=O)[C@@H]3CCCN3C2=O)cc1 [Compound 047] (cyclo(A[dA][Trp(5-F)][Trp(5-F)]PTY(Me)P[X13]))	100 to 1000	100 to 1000		
COc1ccc(C[C@@H]2NC(=O)[C@H]([C@@H](C)O)NC(=O)[C@@H]3CCCN3C(=O)[C@H](Cc3c[nH]c4ccc(F)cc34)NC(=O)[C@H](Cc3c[nH]c4ccc(F)cc34)NC(=O)[C@@H](C)NC(=O)[C@H](CCCCN)NC(=O)CCSCc3cc(cc(OC)c3)CSC[C@@H](C(N)=O)NC(=O)[C@]3(C)CCCN3C2=O)cc1 [Compound 063] ([Mpa]K[dA][Trp(5-F)][Trp(5-F)]PTY(Me)[αMeP]C-NH2; linker 1-10 via X35)	21000 to 50000	1000 to 12100		
